Measured values as given in PubChem BioAssay AID1259407 (Chemical Carcinogenesis Research Information System (CCRIS), 2018).
Entries after “also recorded” stand apart in the source; their conditions may differ. Calls of active or inactive are those of the source. The rule behind the calls is not given here.

Tested on: CCRIS mutagenicity, Ames/micronucleus/aberration tests
Assay: CCRIS mutagenicity studies
[1] = Test System: AMES SALMONELLA TYPHIMURIUM, Strain/Indicator: TA98, Metabolic Activation: NONE, Method: STANDARD PLATE
[2] = Test System: AMES SALMONELLA TYPHIMURIUM, Strain/Indicator: TA100, Metabolic Activation: NONE, Method: STANDARD PLATE
[3] = Test System: AMES SALMONELLA TYPHIMURIUM, Strain/Indicator: TA100, Metabolic Activation: RAT, LIVER, S-9, AROCLOR 1254, Method: STANDARD PLATE

`Clc1ccc(C(Cl)c2ccccn2)cc1` (centres undefined) was tested, and the mutagenic call (End Point: IN VITRO CHROMOSOMAL ABERRATIONS, Test System: CHL CELLS, Metabolic Activation: NONE) was “inactive; negative; test chemical precipitated at 0.2 mg/ml; toxic at 0.3 mg/ml (metaphase; also recorded: active; positive (structural changes); 0.30 mg/ml was toxic; metaphase cell division not” and the mutagenic call (End Point: IN VITRO CHROMOSOMAL ABERRATIONS, Test System: CHL CELLS, Metabolic Activation: RAT, LIVER, S-9, SODIUM PHENOBARBITAL AND 5,6-BENZOFLAVONE) was “active; positive (structural changes); test chemical precipitated at 2 highest of 4 dose”.
For `CC(=O)N(N=O)c1ccc2c(c1)Cc1ccccc1-2`, the mutagenic call (Test System: CHINESE HAMSTER OVARY, Strain/Indicator: CHO/6-THIOGUANINE (HGPRT), Metabolic Activation: NONE, Method: STANDARD PLATE) was “active; positive” and the mutagenic call (Test System: CHINESE HAMSTER OVARY, Strain/Indicator: CHO/OUABAIN (HGPRT), Metabolic Activation: NONE, Method: STANDARD PLATE) was “active; positive”.
In the case of `Clc1cccc2cc3ccccc3cc12`, the mutagenic call [1] was “inactive; negative”, the mutagenic call (Test System: AMES SALMONELLA TYPHIMURIUM, Strain/Indicator: TA98, Metabolic Activation: RAT, LIVER, S-9, AROCLOR 1254, Method: STANDARD PLATE) was “inactive; negative” and the mutagenic call [2] was “inactive; negative”. The mutagenic call [3] was “inactive; negative”.
For `COc1cc(O)c2c(=O)c3cc(O)ccc3oc2c1`, the mutagenic call (Test System: AMES SALMONELLA TYPHIMURIUM, Strain/Indicator: TA97, Metabolic Activation: RAT, LIVER, S-9, PHENOBARBITAL AND 5,6-BENZOFLAVONE, Method: PREINCUBATION) was “active; positive”, the mutagenic call (Test System: AMES SALMONELLA TYPHIMURIUM, Strain/Indicator: TA98, Metabolic Activation: RAT, LIVER, S-9, PHENOBARBITAL AND 5,6-BENZOFLAVONE, Method: PREINCUBATION) was “inactive; negative” and the mutagenic call (Test System: AMES SALMONELLA TYPHIMURIUM, Strain/Indicator: TA100, Metabolic Activation: RAT, LIVER, S-9, PHENOBARBITAL AND 5,6-BENZOFLAVONE, Method: PREINCUBATION) was “inactive; negative”. For the same compound, the mutagenic call (Test System: AMES SALMONELLA TYPHIMURIUM, Strain/Indicator: TA2637, Metabolic Activation: RAT, LIVER, S-9, 5,6-BENZOFLAVONE AND/OR SODIUM PHENOBARBITAL, Method: PREINCUBATION) was “active; positive”, the mutagenic call (Test System: AMES SALMONELLA TYPHIMURIUM, Strain/Indicator: TA2637, Metabolic Activation: RAT, LIVER, S-9, PHENOBARBITAL AND 5,6-BENZOFLAVONE, Method: PREINCUBATION) was “active; positive” and the mutagenic call (Test System: AMES SALMONELLA TYPHIMURIUM, Strain/Indicator: TA2637, Metabolic Activation: RAT, LIVER, S-105, 5,6-BENZOFLAVONE AND/OR SODIUM PHENOBARBITAL, Method: PREINCUBATION) was “inactive; negative”.
`c1ccc2c(c1)C1OOC2c2ccccc21` was tested, and the mutagenic call [1] was “inactive; negative”, the mutagenic call [2] was “inactive; negative” and the mutagenic call [3] was “inactive; negative”.
For `Nc1ccc2[nH]c3ccccc3c2c1`, the mutagenic call [1] was “inactive; negative”, the mutagenic call (Test System: AMES SALMONELLA TYPHIMURIUM, Strain/Indicator: TA98, Metabolic Activation: RAT LIVER S-9, AROCLOR 1254, Method: STANDARD PLATE) was “active; positive” and the mutagenic call (Test System: AMES SALMONELLA TYPHIMURIUM, Strain/Indicator: TA98, Metabolic Activation: RAT, LIVER, S-9, PHENOBARBITAL, Method: STANDARD PLATE) was “active; positive”. The mutagenic call [2] was “inactive; negative”, the mutagenic call (Test System: AMES SALMONELLA TYPHIMURIUM, Strain/Indicator: TA100, Metabolic Activation: RAT LIVER S-9, AROCLOR 1254, Method: STANDARD PLATE) was “inactive; negative” and the mutagenic call (Test System: AMES SALMONELLA TYPHIMURIUM, Strain/Indicator: TA100, Metabolic Activation: RAT, LIVER, S-9, PHENOBARBITAL, Method: STANDARD PLATE) was “inactive; negative”. For the same compound, the mutagenic call (Test System: AMES SALMONELLA TYPHIMURIUM, Strain/Indicator: TA1537, Metabolic Activation: NONE, Method: STANDARD PLATE) was “inactive; negative”, the mutagenic call (Test System: AMES SALMONELLA TYPHIMURIUM, Strain/Indicator: TA1537, Metabolic Activation: RAT, LIVER, S-9, PHENOBARBITAL, Method: STANDARD PLATE) was “inactive; negative” and the mutagenic call (Test System: AMES SALMONELLA TYPHIMURIUM, Strain/Indicator: TA1538, Metabolic Activation: NONE, Method: STANDARD PLATE) was “inactive; negative”. The mutagenic call (Test System: AMES SALMONELLA TYPHIMURIUM, Strain/Indicator: TA1538, Metabolic Activation: RAT, LIVER, S-9, PHENOBARBITAL, Method: STANDARD PLATE) was “active; positive”, the mutagenic call (Test System: AMES SALMONELLA TYPHIMURIUM, Strain/Indicator: TA1977, Metabolic Activation: NONE, Method: STANDARD PLATE) was “inactive; negative” and the mutagenic call (Test System: AMES SALMONELLA TYPHIMURIUM, Strain/Indicator: TA1977, Metabolic Activation: RAT, LIVER, S-9, PHENOBARBITAL, Method: STANDARD PLATE) was “inactive; negative”.
